Test results published in article PMC8365601, “Terphenyl-Based Small-Molecule Inhibitors of Programmed Cell Death-1/Programmed Death-Ligand 1 Protein–Protein Interaction” (Journal of Medicinal Chemistry, 2021).
Read-outs that look alike come from different tables or passages of the source.

Key:
[1] = tested on: Jurkat-ECs alone or with CHO wt or CHO/TCRAct cells; assay: ICB assay control where PD-L1 is absent; assay type: cell-based; settings: 6 h; Figure S1
Protocol: The functional assay of the blockade of PD-1/PD-L1 interaction in vitro (PD-1/PD-L1 Blockade Bioassay, Promega) was performed according to the manufacturer’s protocol. CHO/TCRAct/PD-L1 cells or CHO/TCRAct or CHO-K1 cells were seeded on 96-well white plates at the density of 10,000 cells/well and the next day overlaid with Jurkat T cells (20,000 cells/well) in the presence of increasing concentrations of the compounds with DMSO only as a control (the concentration of DMSO was kept constant at 0.1%) or atezolizumab, as a positive control, anti-PD-L1 monoclonal antibody (Selleckchem). The 2.5-fold dilutions of atezolizumab were prepared in the assay buffer (RPMI 1640 + 1% FBS) on the day of the assay. Activation of the Jurkat T cells, reflected by luciferase activity, was monitored by luminescence measurements after 6 h of incubation (37 °C, 5% CO2), and 20 min of additional incubation with the Bio-Glo assay reagent (Promega) at room temperature. The luminescence was read on a Spark microplate reader (Tecan). The data are presented as fold induction of the luminescence signal relative to either untreated (for atezolizumab) or DMSO-treated (for compound) cells. Data points represent mean ± SD values from three to five independent experiments. Half-maximal effective concentrations (EC50 values) were calculated from the Hill curve fitting to the experimental data using Origin Pro 2020 software (OriginLab). […]
of the Immune Checkpoint Blockade (ICB) assay, where 8h, 8i, and 8j were used to restore the activation of effector Jurkat-ECs. Jurkat-ECs were either kept alone, or contacted with one of the following cell lines: wild type CHO K1 cells (CHO wt), CHO K1 cells expressing TCR Activator (CHO/TCRAct), or CHO K1 cells expressing TCR Activator and […]. The cells were incubated with the indicated concentrations of the compounds for 6 hours and luminescence was measured as an indicator of TCR-dependent activation of Jurkat-ECs. The graphs present fold induction of the luminescence signal relative to DMSO-treated cells. […]

PD-1/PD-L1 interaction = target: T1, PD-1/PD-L1 interaction (Homo sapiens, UniProt Q9NZQ7); assay: PD-1/PD-L1 ICB assay (Jurkat-ECs with CHO/TCRAct/PD-L1 cells, luciferase); assay type: cell-based
T1 construct: host or cells: CHO-K1 (CHO/TCRAct/PD-L1) and Jurkat effector cells
Protocol: After a successful optimization of the terphenyl compounds, the activity of the optimized molecules 7a and 8a–j in a cellular context was assessed. To this end, we first performed the PD-1/PD-L1 ICB assay. In this assay, T-cell receptor (TCR)-mediated activation of Jurkat effector cells (Jurkat-ECs) is reduced by the presence of PD-L1, exposed at the surface of CHO/TCRAct/PD-L1 cells (Figure 3A).
The functional assay of the blockade of PD-1/PD-L1 interaction in vitro (PD-1/PD-L1 Blockade Bioassay, Promega) was performed according to the manufacturer’s protocol. CHO/TCRAct/PD-L1 cells or CHO/TCRAct or CHO-K1 cells were seeded on 96-well white plates at the density of 10,000 cells/well and the next day overlaid with Jurkat T cells (20,000 cells/well) in the presence of increasing concentrations of the compounds with DMSO only as a control (the concentration of DMSO was kept constant at 0.1%) or atezolizumab, as a positive control, anti-PD-L1 monoclonal antibody (Selleckchem). The 2.5-fold dilutions of atezolizumab were prepared in the assay buffer (RPMI 1640 + 1% FBS) on the day of the assay. Activation of the Jurkat T cells, reflected by luciferase activity, was monitored by luminescence measurements after 6 h of incubation (37 °C, 5% CO2), and 20 min of additional incubation with the Bio-Glo assay reagent (Promega) at room temperature. The luminescence was read on a Spark microplate reader (Tecan). The data are presented as fold induction of the luminescence signal relative to either untreated (for atezolizumab) or DMSO-treated (for compound) cells. Data points represent mean ± SD values from three to five independent experiments. Half-maximal effective concentrations (EC50 values) were calculated from the Hill curve fitting to the experimental data using Origin Pro 2020 software (OriginLab).

[2] = tested on: primary CD4+ and CD8+ T cells (PBMCs); assay: T-cell activation (TCA) assay, PBMCs with CHO/TCRAct/PD-L1 cells, flow cytometry; assay type: cell-based, human; settings: 48 h; compounds 0.1, 0.5, 2.5 μM; mAbs 5 μg/mL
Protocol: A standard ICB assay relies on artificial Jurkat-ECs, which are surrogates of T-cells. To verify the potential of the compounds to reactivate the PD-L1-blocked primary T cells, a modified assay termed T-cell activation (TCA) was carried out.[32] In this assay, human primary peripheral blood mononuclear cells (PBMCs) are allowed to make contact with CHO/TCRAct/PD-L1 cells alone or in the presence of PD-1/PD-L1 blockers, and the activation of CD4^+ and CD8^+ T cell is monitored by flow cytometry.
Anticoagulant citrate dextrose-A-treated blood from healthy donors was purchased from the Regional Center of Blood Donation and Blood Therapy in Krakow, Poland. PBMCs were isolated from whole blood by density gradient centrifugation using Pancoll human separating solution (PAN-Biotech GmbH, Aidenbach, Germany). The separated cells were washed and resuspended in RPMI 1640 medium (Biowest) containing 10% FBS (Biowest). PBMCs were added at an amount of 3 × 10^5 to CHO, CHO/TCRAct, or CHO/TCRAct/PD-L1 cells preseeded on 24-well plates in the presence of either anti-PD-L1 mAbs (at the final concentration 5 μg/mL): durvalumab (Selleckchem), atezolizumab (Selleckchem), or avelumab (MedChemExpress) or tested compounds at the concentrations 0.1, 0.5, and 2.5 μM. Untreated cells were used as controls for antibody treatment, while DMSO-treated cells [0.1% (v/v)] were used as controls for compound treatment. The cells were incubated for 48 h (37 °C, 5% CO2) and then detached from the plates with TrypLe Select Enzyme (Thermo Fisher). PBMCs were stained for 20 min at room temperature with the antibodies: anti-CD4-FITC, anti-CD8-BV510, anti-CD69-APC, anti-CD25-PE, anti-HLA-DR-PerCP, and anti-PD1-PECy7 (Becton Dickinson Biosciences, BD). Following two washing steps, the cells were analyzed with a FACSCanto II cytometer. Data analysis was carried out with FlowJo software, followed by statistical significance calculations done with Origin Pro 2020 software (OriginLab). Statistical significance was analyzed with one-way analysis of variance (ANOVA), followed by the Fisher’s posthoc test: *p < 0.05, **p < 0.01, […].

[3] = Cytotoxicity assay toward Jurkat-ECs; assay type: cell-based; settings: human, Jurkat-EC cells, SI csv
Protocol: The cytotoxicity of compounds was verified toward Jurkat-ECs since these cells provide the readout in the ICB assay and present a much higher degree of susceptibility to the compounds’ toxicity than CHO-K1 cells (not shown). Jurkat-ECs were seeded on 96-well transparent plates in the presence of increasing concentrations of the compounds with DMSO-treated cells as a control. The concentration of DMSO was kept constant (0.1%). After 48 h of incubation, a tetrazolium reagent, Biolog redox dye MIX MB (Biolog), was added according to the manufacturer’s protocol, and the culture plates were incubated for an additional 2 h (37 °C, 5% CO2). The absorbance was measured using a Spark microplate reader (Tecan) at 590 nm with 750 nm as a reference. The data are presented as Jurkat-EC survival relative to DMSO-treated control cells. Data points represent mean ± SD values from three independent experiments. Half-maximal effective concentrations (EC50 values) were calculated from the dose–response curve using OriginPro 2020 (OriginLab) software.

PD-1/PD-L1 complex = PD-1/PD-L1 complex (Homo sapiens, UniProt Q9NZQ7); assay: HTRF assay of PD-1/PD-L1 complex dissociation (CisBio); settings: for remaining activity at 0.005 µM: 2 h;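 as to all read-outs here: human PD-L1 at 5 nM with human PD-1 at 50 nM, TR-FRET signal read after 2 h at room temperature, background removed via negative control and scaled to positive control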
[4] = tested on: PBMCs cocultured with CHO/TCRAct/PD-L1 cells; assay: Cytokine accumulation in culture media of the TCA assay (CBA Th1/Th2/Th17 kit); assay type: cell-based, human; settings: TCA assay supernatants, four donors
Protocol: In addition to the expression of surface markers, the accumulation of immune-related cytokines in the culture media collected in the TCA assay was monitored with the cytometric bead array (CBA) human Th1/Th2/Th17 kit. […] Also, the levels of IL-6, IFN-γ, and IL-2 increased, but these increases were not statistically significant.
The concentration of the cytokines (IL-2, IL-4, IL-6, IL-10, IL-17A, IFN-γ, and TNFα) in supernatants was determined using the CBA Human Th1/Th2/Th17 kit (BD Biosciences), with data acquisition using the FACSCanto flow cytometer. The CBA beads were discriminated in FL-4 and FL-5 channels, while the concentration of specified cytokines was determined by the intensity of FL-2 fluorescence, using the respective standard reference curve and FCAP Array software (BD Biosciences). IL-4 was below the detection level and is not presented in the manuscript. Statistical significance was analyzed with one-way ANOVA using the Origin Pro 2020 software, followed by the Fisher’s posthoc test: *p < 0.05, **p < 0.01, […].

Chain of PD-1/PD-L1 complex (Q9NZQ7 19-238 limits assumed, one chain of several): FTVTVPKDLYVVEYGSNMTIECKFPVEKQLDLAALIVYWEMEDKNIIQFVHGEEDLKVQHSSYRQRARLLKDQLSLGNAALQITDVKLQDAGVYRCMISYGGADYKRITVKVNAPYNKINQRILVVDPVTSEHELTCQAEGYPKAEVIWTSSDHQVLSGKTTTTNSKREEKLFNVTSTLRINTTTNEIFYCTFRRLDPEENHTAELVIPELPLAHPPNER
T1 sequence (Q9NZQ7 19-290): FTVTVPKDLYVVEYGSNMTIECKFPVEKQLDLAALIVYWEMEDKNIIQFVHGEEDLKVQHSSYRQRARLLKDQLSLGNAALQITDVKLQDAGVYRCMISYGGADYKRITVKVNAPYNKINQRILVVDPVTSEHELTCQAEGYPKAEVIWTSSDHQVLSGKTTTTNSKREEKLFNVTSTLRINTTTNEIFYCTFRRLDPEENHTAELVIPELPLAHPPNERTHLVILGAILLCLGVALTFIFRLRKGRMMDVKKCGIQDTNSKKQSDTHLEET

Compound	activation of Jurkat-ECs where PD-L1 is absent [1]	selectivity of PD-1/PD-L1-blocking activity versus cytotoxicity (PD-1/PD-L1 interaction; EC50 (tox.) vs EC50 (bio.), Figure 3F)	EC50 (PD-1/PD-L1 interaction; Jurkat-ECs with CHO/TCRAct/PD-L1, 6 h, SI csv, read-out: Bioactivity (EC50 in the ICB assay)) [µM]	numbers of PD-1-positive T cells [2]	EC50 at 48 h [3] [µM]	remaining activity at 0.005 µM (PD-1/PD-L1 complex; read-out: % of undissociated complex at 5 nM) [%]	remaining activity at 0.005 µM (PD-1/PD-L1 complex; read-out: HTRF % of the undissociated complex at 5 nM) [%]	IC50 (PD-1/PD-L1 complex; HTRF, Table 4, <1.00 = limit of quantification reached) [µM]	activation of Jurkat-ECs (PD-1/PD-L1 interaction; 6 h, fold induction of luminescence)	accumulation of immune-related cytokines in culture media [4]
COc1cc(-c2cccc(-c3ccc4c(c3)OCCO4)c2Cl)ccc1CNCCNC(N)=O [8h, 1-(2-(((3′-(Benzo-1,4-dioxan-6-yl)-2′-chloro-3-methoxy-[1,1′-biphenyl]-4-yl)methyl)amino)ethyl)urea]	requires the presence of PD-L1	highest selectivity	2 ± 0.37	significant increase	4.14 ± 0.71	6	6	< 0.001	–	–
atezolizumab: therapeutic anti-PD-L1 monoclonal antibody, positive control	–	–	–	increases the expression of PD-1 on T-cells	–	–	–	–	full activation of Jurkat-ECs is restored	significantly increased levels of IL-17A, TNF-α, and IL-10
